Experimental data taken from US20040106172A1, “Hydrolyzing/dehydration condensing enzymes, method for producing the enzyme and method for synthesizing amide by using the enzyme” (Okayama University, priority 2002, published 2004).
Like-named read-outs stand apart in the source and are kept apart here.

Columns and labels:
[1] = test system: purified enzyme (capsaicin hydrolysis activity); assay: Effects of various reagents upon enzymatic activity (capsaicin hydrolysis); format: biochemical, Streptomyces mobaraensis IFO 13819
[2] = test system: Streptomyces mobaraensis (enzyme according to the invention); assay: Hydrolysis of antibiotic substances having an amide bond by the enzyme of the invention; format: biochemical; details: for hydrolyzing activity for the substrate: 10 mM antibiotic, pH 7.5, 37° C., 2 minutes, 0.1 mM CoCl2, 1 Unit = 1 μmol substrate hydrolyzed in 1 hour; for Activity kcat (approximate value): substrate of the enzyme according to the invention
Description: The enzyme is examined on the hydrolysis of an antibiotic substance having an amide bond. As the antibiotic substance are used Penicillin G, Penicillin V and Ampicillin, respectively. The reaction is carried out at 37° C. for 2 minutes by using 20 μg of the enzyme in 0.1 ml of 50 mM tris-hydrochloric acid buffer solution containing 0.1 mM of CoCl2 as a solvent (pH: 7.5) under a condition that a final concentration of the antibiotic substance is 10 mM.
As a result, if the hydrolyzing activity for capsaicin at pH of 7.5 is 200 U/mg (Unit is defined as an amount of the enzyme required for hydrolyzing 1 μmol of the substrate at 37° C. for 1 hour), the activities for Penicillin G, Penicillin V and Ampicillin are 2200 U, 6000 U and 1000 U, respectively.
In order to show the utility of the enzyme according to the invention, it is compared with the existing Penicillin Vacylase originated from Streptomyces lavendulae (Raquel Torres-Guzman et al., Biochemical and Biophysical Research Communications, Vol. 291, 593-0597 (2002)) (compared with activity kcat (1/s)).

[3] = test system: Penicillin Vacylase originated from Streptomyces lavendulae; details: cited from earlier work; for Activity kcat: substrate of Streptomyces lavendulae Penicillin V acylase, Torres-Guzman et al. 2002
[4] = pH dependency, heat stability and temperature dependency of the purified enzyme; format: physicochemical, Streptomyces mobaraensis IFO 13819
[5] = test system: Streptomyces mobaraensis (enzyme according to the invention); assay: Hydrolysis of N-benzyloxycarbonyl-L-amino acids by the enzyme of the invention; format: biochemical
Description: An ability of hydrolyzing/dehydration condensing by the enzyme according to the invention is examined by using N-benzyloxycarbonyl-L-amino acid (Z-L-amino acid) as an amide. The reaction is performed by using […] of the enzyme in 0.2 ml of 50 mM tris-hydrochloric acid buffer solution containing 0.1 mM of CoCl2 as a solvent (pH: 7.5) under a condition that a final concentration of N-benzyloxycarbonyl-L-amino acid is 10 mM at 37° C. for 30 minutes (Z-L-Phe and Z-L-Tyr) or 1 hour (the other Z-L-amino acids).

[6] = test system: Urethane hydrolase IV (strain F-86); details: cited from earlier work
[7] = test system: Capsaicin hydrolyzing/dehydration condensing enzyme of the invention; details: fatty acid as substrate with vanillylamine; water/n-hexane two-phase system, 37° C.; HPLC of hexane phase
Description: (§1) The reaction temperature is 37° C.
(§2) As a comparative example, aminoacylase is used. The resulting capsaicin analog is quantitatively measured by HPLC analysis of the hexane phase.

Aminoacylase = assay: Synthesis of capsaicin analogs from vanillylamine and fatty acids, comparative aminoacylase; format: biochemical; details: comparative example; fatty acid as substrate with vanillylamine; water/n-hexane two-phase system, 37° C.; HPLC of hexane phase
Description: as §1, §2

[8] = reagent 1 mM, 0.13 mM capsaicin/50 mM tris-HCl (pH 7.5), control = 100
[9] = 10 mM Z-L-amino acid, pH 7.5, 37° C., 0.1 mM CoCl2

Row | Compound | Relative activity [1, 8] [%] | Activity for the substrate [5, 9] [Unit/mg] | Activity for the substrate ([6]; Matsumura et al. 1985) [Unit/mg] | other results
1 | O=[N+]([O-])[O-].[Ag+] [AgNO3] | 100.1 |  |  | 
2 | CC1(C)S[C@@H]2[C@H](NC(=O)[C@H](N)c3ccccc3)C(=O)N2[C@H]1C(=O)O [Ampicillin] |  |  |  | Activity for the substrate [2]: excellent activity; hydrolyzing activity for the substrate [2]: 1000 U; Activity kcat (approximate value) [2]: >17 s⁻¹; Activity for the substrate [3]: hardly an activity; Activity kcat [3]: 0 s⁻¹
3 | [Ca+2].[Cl-].[Cl-] [CaCl2] | 101.6 |  |  | 
4 | [Cl-].[Cl-].[Co+2] [CoCl2] |  |  |  | effect on capsaicin hydrolysis activity of the purified enzyme [1]: enhanced; Relative activity ([1]; pH 7.5): 145.5%; residual activity with added cobalt ion vs no cobalt ion [4]: higher
5 | O=S(=O)([O-])[O-].[Cu+2] [CuSO4] | 96.9 |  |  | 
6 | O=C(NC(CSCc1ccccc1)C(=O)O)OCc1ccccc1 (stereo not shown) [Cys(Bzl)] |  | 250 | 228 | 
7 | O[C@@H](CS)[C@@H](O)CS [DTT] | 79.8 |  |  | 
8 | O=C(O)CN(CCN(CC(=O)O)CC(=O)O)CC(=O)O [EDTA] |  |  |  | Relative activity ([1]; pH 7.5): 85.5%
9 | O=S(=O)([O-])[O-].[Fe+2] [FeSO4] | 88.8 |  |  | 
10 | N[C@@H](CCC(=O)N[C@@H](CS)C(=O)NCC(=O)O)C(=O)O [GSH] | 99.8 |  |  | 
11 | NC(=O)CI [Idoacetoamide] | 86.5 |  |  | 
12 | N[C@@H](CS)C(=O)O [L-Cys] | 101.2 |  |  | 
13 | CCCCCCCCCCCC(=O)O [Lauric acid] |  |  |  | Synthesis of capsaicin analogs [7]: 1.25 mM; Synthesis of capsaicin analogs (Aminoacylase): 0.051 mM
14 | O=S(=O)([O-])[O-].[Mg+2] [MgSO4] | 96.0 |  |  | 
15 | CCCCCCCCCCCCCC(=O)O [Myristic acid] |  |  |  | Synthesis of capsaicin analogs [7]: 0.24 mM
16 | O=C(O)c1cc[c]([Hg][Cl])cc1 [PCMB] | 96.6 |  |  | 
17 | CC1(C)S[C@@H]2[C@H](NC(=O)Cc3ccccc3)C(=O)N2[C@H]1C(=O)O [Penicillin G] |  |  |  | Activity for the substrate [2]: excellent activity; hydrolyzing activity for the substrate [2]: 2200 U; Activity kcat (approximate value) [2]: >50 s⁻¹; Activity for the substrate [3]: hardly an activity; Activity kcat [3]: 3.4 s⁻¹
18 | CC1(C)S[C@@H]2[C@H](NC(=O)COc3ccccc3)C(=O)N2[C@H]1C(=O)O [Penicillin V] |  |  |  | hydrolyzing activity for the substrate [2]: 6000 U; Activity kcat (approximate value) [2]: >80 s⁻¹; Activity kcat [3]: 60.25 s⁻¹
19 | C[C@H](NC(=O)OCc1ccccc1)C(=O)O [Z-Ala] |  | 29 | 228 | 
20 | N=C(N)NCCC[C@H](NC(=O)OCc1ccccc1)C(=O)O [Z-Arg] |  | 37 | 0 | 

Row | Compound | Relative activity [1, 8] [%] | Activity for the substrate [5, 9] [Unit/mg] | Activity for the substrate ([6]; Matsumura et al. 1985) [Unit/mg] | other results
21 | NC(=O)C[C@H](NC(=O)OCc1ccccc1)C(=O)O [Z-Asn] |  | 12 | 138 | 
22 | O=C(O)C[C@H](NC(=O)OCc1ccccc1)C(=O)O [Z-Asp] |  |  | 360 | 
23 | NC(=O)CC[C@H](NC(=O)OCc1ccccc1)C(=O)O [Z-Gln] |  | 27 | 144 | 
24 | O=C(O)CC[C@H](NC(=O)OCc1ccccc1)C(=O)O [Z-Glu] |  | 12 | 246 | 
25 | O=C(O)CNC(=O)OCc1ccccc1 [Z-Gly] |  | 0 | 108 | 
26 | O=C(NC(Cc1cnc[nH]1)C(=O)O)OCc1ccccc1 (stereo not shown) [Z-His] |  | 36 | 18 | 
27 | CCC(C)C(NC(=O)OCc1ccccc1)C(=O)O (stereo not shown) [Z-Ile] |  | 28 | 18 | 
28 | CC(C)C[C@H](NC(=O)OCc1ccccc1)C(=O)O [Z-Leu] |  | 100 | 1668 | 
29 | NCCCC[C@H](NC(=O)OCc1ccccc1)C(=O)O [Z-Lys] |  | 38 | 0 | 
30 | CSCCC(NC(=O)OCc1ccccc1)C(=O)O (stereo not shown) [Z-Met] |  | 85 | 294 | 
31 | O=C(N[C@@H](Cc1ccccc1)C(=O)O)OCc1ccccc1 [Z-Phe] |  | 470 | 54 | Activity for the substrate [5]: high activity; Activity for the substrate [6]: lower activity
32 | O=C(N[C@@H](CO)C(=O)O)OCc1ccccc1 [Z-Ser] |  | 0 | 18 | 
33 | C[C@@H](O)[C@H](NC(=O)OCc1ccccc1)C(=O)O [Z-Thr] |  | 4.5 | 162 | 
34 | O=C(N[C@@H](Cc1ccc(O)cc1)C(=O)O)OCc1ccccc1 [Z-Tyr] |  | 650 | 0 | Activity for the substrate [5]: high activity; Activity for the substrate [6]: lower activity
35 | CC(C)C(NC(=O)OCc1ccccc1)C(=O)O (stereo not shown) [Z-Val] |  | 43 | 84 | 
36 | [Cl-].[Cl-].[Zn+2] [ZnCl2] | 95.5 |  |  | 
37 | COc1cc(CNC(=O)CCCC/C=C/C(C)C)ccc1O [capsaicin] |  |  |  | hydrolyzing activity for capsaicin ([2]; pH 7.5, reference value for the antibiotic activities): 200 U/mg
38 | OCCS [β-mercaptoethanol] |  |  |  | Relative activity ([1]; reagent 10 mM, 0.13 mM capsaicin/50 mM tris-HCl (pH 7.5), control = 100): 79.3%
39 | (NH4)6Mo7O24 | 88.7 |  |  | 
